Measured values reported in US20090253634A1, “Methods and Compositions for the Treatment of Gastrointestinal Disorders” (MICROBIA, INC., priority 2005, published 2009).
Bridge positions count the residues as written; N and C are the ends. Peptide text beside a SMILES is read from it.

Columns and labels:
[1] = tested on: intestinal secretion; experiment: suckling mouse model of intestinal secretion (SuMi assay); assay type: in vivo, suckling mice; details: dose response; wild-type ST purchased from TDT; FIG. 5a, 5b
Procedure: In this model a test compound is administered to suckling mice that are between 7 and 9 days old. After the mice are sacrificed, the gastrointestinal tract from the stomach to the cecum is dissected (“guts”). The remains (“carcass”) as well as the guts are weighed and the ratio of guts to carcass weight is calculated. If the ratio is above 0.09, one can conclude that the test compound increases intestinal secretion. […] The effect of Zelnorm® was also studied.

[2] = tested on: bowel habits; experiment: single oral dose study of bowel habits in humans; assay type: in vivo
Procedure: Single doses of 30, 100, 300, 1000 or 3000 μg of chemically synthesized SEQ ID NO:3 were given to 30 healthy males and postmenopausal females. At each dose level (100 μg was done twice) SEQ ID NO:3 or placebo (vehicle) was administered orally in 5.0 mL 50 mM phosphate buffer (pH 6.0) plus 3×20 mL water rinses and 175 mL water after at least a 10-hour fast. In each dosing group, subjects were randomized to receive either placebo (1 subject) or SEQ ID NO:3 (3-4 subjects). Bowel habits (including Bristol Stool Form Scale score (BSFS; FIG. 14a), stool frequency, and stool weight) were evaluated for each collected bowel movement 48 hours prior to dose and up to approximately 48 hours postdose.

[3] = tested on: response to colorectal distension; experiment: partial restraint stress-induced hyperalgesia model; assay type: in vivo, Wistar rats; details: oral 0.3 and 3.0 μg/kg; distending pressure 15 mm Hg; p<0.0001
Procedure: Five groups of female Wistar rats (weighing 200-250 g each), were surgically prepared for electromyography as described (Morteau et al. 1994 Dig Dis Sci 39:1239-48) and were used to evaluate the effects of SEQ ID NO:3 on colorectal sensitivity and compliance after a 2 hour partial restraint stress session. Partial restraint stress (PRS), a relatively mild stress, was induced as previously described (Morteau et al., 1994 Dig Dis Sci 39:1239-48). Female rats were lightly anesthetized with diethyl ether and their shoulders, upper forelimbs and thoracic trunk were wrapped in a confining harness of paper tape to restrict, but not prevent body movements. Control sham-stress animals were anesthitized but not wrapped. […] Electrical activity was recorded with an electroencephalograph (Mini VIII, Alvar, Paris, France) using a short time constant (0.03 sec.) to remove low-frequency signals (<3 Hz) and a paper speed of 3.6 cm/minute. […] Colonic pressure and balloon volume were continuously monitored on a potentiometric recorder (L6514, Linseis, Selb, Germany) with a paper speed of 1.0 cm/minute. The number of spike bursts, corresponding to abdominal contractions, was evaluated per 5-minute period. Colorectal volumes were determined as the maximal volume obtained for each stage of distension using the potentiometric recorder. […] The values were expressed as mean±SEM.

SMILES: C[C@@H]1NC(=O)[C@@H]2CCCN2C(=O)[C@H](CC(N)=O)NC(=O)[C@@H]2CSSC[C@H](N)C(=O)N[C@H]3CSSC[C@H](NC1=O)C(=O)N[C@@H]([C@@H](C)O)C(=O)NCC(=O)N[C@H](C(=O)N[C@@H](Cc1ccc(O)cc1)C(=O)O)CSSC[C@H](NC(=O)[C@H](Cc1ccc(O)cc1)NC(=O)[C@H](CCC(=O)O)NC3=O)C(=O)N2 [SEQ ID NO:3] (H-CCEYCCNPACTGCY-OH; disulfide 1-6, 2-10, 5-13; N-terminus and C-terminus assumed)
- intestinal secretion (guts to carcass weight ratio) [1]: increase intestinal secretion
- percent of subjects with a 2-point or greater increase in BSFS score ([2]; 1000 μg dose group, mean pre-dose compared to peak 48 hours post-dose): highest percent of subjects
- BSFS post-dose scores, relation to dose ([2]; single oral dose 30-3000 μg): Higher BSFS post-dose scores correlated with a higher dose
- maximum BSFS (Bristol Stool Form Scale) score ([2]; single oral dose 30-3000 μg, healthy males and postmenopausal females): increase in maximum BSFS score
- response to CRD after partial restraint stress [3]: reduced the response to CRD
